What was measured:
recombinant Caspase-3 = biological target: T1, recombinant Caspase-3 (Homo sapiens, UniProt P42574); experiment: Caspase Inhibitor Drug Screening Kit (BioVision), DEVD-AFC substrate; assay type: biochemical; conditions: not active site titrated
T1 construct: purchased BioVision
Experimental: (§1) The half-maximal inhibitory concentrations (IC50) for NWL inhibitors (Patent publication # WO/2009/140765, WO/2010/133000, and WO/2012/140500) was determined by incubating 0 to 20 μM NWL-117 and NWL-154 with 20 nM of active site-titrated Casp6 in SB at room temperature for 5 minutes. Then, 10 μM Ac-VEID-AFC was added and fluorescence measured for 20 min at 37 °C as described above. New World Laboratories performed the IC50 determination for NWL inhibitors dissolved in dimethyl sulfoxide (DMSO) against recombinant Casp1-10 using the Caspase Inhibitor Drug Screening Kits (BioVision, San Francisco, CA) following the manufacturer’s instructions and the preferred substrates for the caspases (Caspase-1: WAD-AFC, Caspase-2: VDVAD-AFC, Caspase-3: DEVD-AFC, Caspase-4: LEVD-AFC, Caspase-5: WEHD-AFC, Casp6:VEID-AFC, Caspase-7: DEVD-AFC, Caspase-8: IETD-AFC, Caspase-9: LEHD-AFC, Caspase-10: AEVD-AFC). In transfected HCT116 cells, 0 to 100 μM NWL inhibitors were added in the culture media and left on the cells for 2 h. Cells were washed once with 1 mL ice-cold PBS, incubated on ice for 5 min with 200 μL cell lysis buffer (CLB) (50 mM HEPES, 0.1% CHAPS, 0.1 mM EDTA), and gently scraped off. Protein concentrations were determined by Bradford assay (BioRad, Mississauga, ON, CA) by measuring the absorbance at 595 nm using the BioTek Synergy H4 plate reader. Caspase-6 activity was measured in 40–60 μg total protein as described above. The IC50 for recombinant and cellular caspases were determined using GraphPad Prism 5.0 (La Jolla, CA, USA) using a log (inhibitor) – response curve with a Hill slope of −1.

recombinant Caspase-7 = biological target: T2, recombinant Caspase-7 (Homo sapiens, UniProt P55210); experiment: as above; assay type: biochemical; conditions: not active site titrated
T2 construct: purchased BioVision
T2 sequence (P55210 whole entry): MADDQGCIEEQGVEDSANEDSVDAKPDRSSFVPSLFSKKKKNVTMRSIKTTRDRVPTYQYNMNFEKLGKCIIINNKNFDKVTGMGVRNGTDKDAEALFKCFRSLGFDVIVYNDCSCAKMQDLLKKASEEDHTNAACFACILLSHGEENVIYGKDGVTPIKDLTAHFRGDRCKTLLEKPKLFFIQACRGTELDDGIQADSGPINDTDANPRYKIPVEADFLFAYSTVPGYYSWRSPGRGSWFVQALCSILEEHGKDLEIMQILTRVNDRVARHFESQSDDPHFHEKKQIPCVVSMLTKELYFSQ
Experimental: as §1

[1] = biological target: T3, Casp6 in serum-deprived primary human neurons (Homo sapiens, UniProt P55212); experiment: Casp6 activity in serum-deprived primary human neurons (VEIDase, FLICA, TubΔCasp6); assay type: cell-based; conditions: 100 μM
T3 construct: endogenous in cells; host or cells: primary human CNS neurons from cortical tissue, serum-deprived
T3 sequence (P55212 24-293): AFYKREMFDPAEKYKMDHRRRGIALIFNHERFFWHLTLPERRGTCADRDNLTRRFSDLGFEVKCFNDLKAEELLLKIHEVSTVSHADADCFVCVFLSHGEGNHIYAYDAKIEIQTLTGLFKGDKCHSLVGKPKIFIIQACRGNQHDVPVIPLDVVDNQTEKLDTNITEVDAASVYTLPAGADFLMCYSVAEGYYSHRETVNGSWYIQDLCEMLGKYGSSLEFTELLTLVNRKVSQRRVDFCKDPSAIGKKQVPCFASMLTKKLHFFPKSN
Experimental: HCT116: Human colon carcinoma (HCT116) cells (ATCC, Manassas, VA, USA) were cultured in McCoy’s 5A modified media (Thermo Fisher Scientific, Waltham, MA, USA) supplemented with 10% fetal bovine serum (Thermo Fisher Scientific, Waltham, MA, USA) and transfected with 1 μg of pCep4βCasp6p20p10 mixed with 8 μg of polyethyleneimine (Polysciences Inc., Warrington, PA, USA). Protein expression was allowed for 24 h before treating with vehicle (PBS), 100 μM NWL-117, or 100 μM NWL-154 for 2 h. For NWL inhibitor kinetic experiments, 100 μM of NWL-117 or NWL-154 was added at 120, 90, 60, 30, 15, or 0 min before harvest. […]
Recombinant or extracted cellular Casp6 activity: Casp6 activity was assessed by in vitro fluorogenic assays using Ac-Val-Glu-Ile-Asp-(7-Amino-4-trifluoromethylcouramin) (Ac-VEID-AFC: Enzo LifeSciences, NY, USA) as the Casp6 substrate. The activity was measured in Stennicke’s buffer (SB) (20 mM piperazine-N, N-bis (2-ethanesulfonic acid) (PIPES: BioShop Canada Inc, Burlington, Ontario, CA) pH 7.2, 30 mM NaCl, 1 mM ethylenediaminetetraacetic acid (EDTA), 0.1% 3-[(3-cholamidopropyl)-dimethylammonio]-2-hydroxy-1-propanesulfonic acid (CHAPS), 10% sucrose). […] Fluorescence units were converted to the moles of AFC released based on a standard curve of 0–625 picomoles of free AFC. Cleavage rates were calculated from the linear phase of the assay. […]

T1 sequence (P42574 29-277): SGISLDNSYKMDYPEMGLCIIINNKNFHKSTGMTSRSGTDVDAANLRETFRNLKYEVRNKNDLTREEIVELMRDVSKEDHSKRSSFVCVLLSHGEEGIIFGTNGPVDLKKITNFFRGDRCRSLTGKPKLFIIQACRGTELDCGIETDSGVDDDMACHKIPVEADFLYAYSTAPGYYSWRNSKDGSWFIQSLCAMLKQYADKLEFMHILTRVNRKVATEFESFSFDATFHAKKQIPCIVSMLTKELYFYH

Compound	IC50 (recombinant Caspase-3) [µM]	IC50 (recombinant Caspase-7) [µM]	Casp6 fluorogenic and FLICA-measured activity and TubΔCasp6 [1]
CCC(C)[C@H](NC(=O)[C@H](CCC(=O)O)NC(=O)[C@@H](NC(=O)OCc1ccccc1)C(C)C)C(=O)N[C@H](/C=C/S(C)(=O)=O)CC(=O)O (stereo partly drawn) [NWL-117]	6.96	> 100	decreased
CCC(C)[C@H](NC(=O)[C@H](CCC(=O)O)NC(=O)[C@@H](NC(=O)OCc1ccccc1)C(C)C)C(=O)N[C@H](/C=C(\Cl)S(C)(=O)=O)CC(=O)O (stereo partly drawn) [NWL-154]	1.34	> 100	decreased

Source: publication PMC5329948, “Caspase vinyl sulfone small molecule inhibitors prevent axonal degeneration in human neurons and reverse cognitive impairment in Caspase-6-overexpressing mice” (Molecular Neurodegeneration, 2017)
